In PubChem BioAssay (NCI):
≈ marks a conversion by molar mass, not a printed value. Where “and” joins values, the source holds several entries; their conditions need not be identical. Equal entries are not always repeated.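 Test compounds were applied to cells in 96-well plates for 48 hours at 5 doses. The concentration for 50% growth inhibition is given as GI50. TGI: total growth inhibition.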

Key:
Experiment in all cases: NCI-60 cell line screen, 48 h
[1] = tested on: MCF7 breast
[2] = tested on: NCI/ADR-RES ovarian
[3] = tested on: HCT-116 colon
[4] = tested on: HCC-2998 colon
[5] = tested on: OVCAR-5 ovarian
[6] = tested on: HOP-62 NSCLC
[7] = tested on: U251 CNS
[8] = tested on: OVCAR-8 ovarian
[9] = tested on: K-562 leukemia
[10] = tested on: NCI-H522 lung

Structure (SMILES): CCN(CC)CCn1c(=N)n(CC(O)c2ccc(Cl)c(Cl)c2)c2ccccc21 (stereo unspecified)
- GI50 [1]: 2.83 µM
- TGI [1]: 8.56 µM
- GI50 [2]: 17.7 µM
- TGI [2]: 36.8 µM
- GI50 [3]: 4.47 µM
- TGI [3]: 16.4 µM
- GI50 [4]: 2.34 µM
- TGI [4]: 5.3 µM
- GI50 [5]: 10.7 µM
- TGI [5]: 22.8 µM
- GI50 [6]: 11.8 µM
- TGI [6]: 24.8 µM
- GI50 [7]: 2.82 µM
- TGI [7]: 9.04 µM
- GI50 [8]: 12.1 µM
- TGI [8]: 25.5 µM
- GI50 [9]: 2.33 µM
- TGI [9]: 6.36 µM

Structure (SMILES): CC(C)c1ccc2c(c1)CCC1C(C)(C)[C@@H](O)CC[C@]21C (stereo partly specified)
- TGI [10]: 79 µM
- TGI [3]: 34.1 µM
- TGI [4]: 58.1 µM
- TGI [5]: 41.7 µM
- TGI [6]: 37.4 µM
- TGI [7]: 52.2 µM
- TGI [8]: > 100 µM
- TGI [9]: > 100 µM

Structure (SMILES): CC(=O)NNc1nc(C)c(C(/C=C/c2ccc(/C=C/C(=N\NC(=O)c3ccncc3)c3sc(NNC(C)=O)nc3C)cc2)=N/NC(=O)c2ccncc2)s1
- TGI [3]: > 100 µM
- TGI [4]: > 100 µM
- TGI [5]: > 100 µM
- TGI [6]: > 100 µM
- TGI [7]: > 100 µM
- TGI [8]: > 100 µM
- TGI [9]: > 100 µM

Structure (SMILES): CCCCNC(=S)Nn1c(-c2ccccc2)nc2ccccc2c1=O
- TGI [10]: > 100 µM
- TGI [3]: > 100 µM
- TGI [5]: > 100 µM
- TGI [6]: > 100 µM
- TGI [7]: > 100 µM
- TGI [8]: > 100 µM
- TGI [9]: > 100 µM

Structure (SMILES): COc1ccc(C(=O)O/N=C2\CCCC\C2=C/c2ccccc2)cc1
- TGI [3]: > 100 µM
- TGI [4]: > 100 µM
- TGI [6]: > 100 µM
- TGI [7]: > 100 µM
- TGI [8]: > 100 µM

Structure (SMILES): O=c1[nH]nc(-c2ccccc2)c(-c2ccccc2)c1-n1nc(-c2ccccc2)c2ccccc2c1=O
- TGI [10]: > 100 µM
- TGI [3]: > 100 µM
- TGI [4]: > 100 µM
- TGI [5]: > 100 µM
- TGI [6]: > 100 µM
- TGI [7]: > 100 µM
- TGI [8]: > 100 µM
- TGI [9]: > 100 µM

Structure (SMILES): O=C(Nc1ccc(Cl)cc1)NS(=O)(=O)c1ccc2c(c1)CCC2
- GI50 [10]: 4.86 µg/mL (≈ 13.9 µM)
- TGI [10]: 94.1 µM and 12.5 µg/mL
- TGI [1]: 81.8 µM
- GI50 [3]: 8.93 µg/mL
- TGI [3]: > 67.3 µM and 27.9 µg/mL
- GI50 [4]: 17.3 µg/mL
- TGI [4]: > 77.6 µM and 36.8 µg/mL
- GI50 [5]: 20 µg/mL
- TGI [5]: > 91 µM and 39.3 µg/mL
- TGI [6]: > 100 µM
- GI50 [7]: 22.5 µg/mL
- TGI [7]: > 77.5 µM and 48.3 µg/mL
- GI50 [8]: 18.8 µg/mL
- TGI [8]: > 100 µM and 44.2 µg/mL
- GI50 [9]: 11.3 µg/mL
- TGI [9]: > 77.1 µM and 150 µg/mL

Structure (SMILES): COc1ccc([C@H]2c3cc(OC)c(OC)cc3C=C(C=O)C2CO)cc1OC (stereo partly specified)
- GI50 [1]: 3.73 µM
- TGI [1]: > 100 µM
- GI50 [2]: 23.1 µM
- TGI [2]: > 100 µM
- GI50 [3]: 5.32 µM
- TGI [3]: > 100 µM
- GI50 [4]: 12.1 µM
- TGI [4]: 76.3 µM
- GI50 [5]: 43 µM
- TGI [5]: > 100 µM
- GI50 [6]: 4.79 µM
- TGI [6]: > 100 µM
- GI50 [7]: 4.42 µM
- TGI [7]: > 100 µM
- GI50 [8]: 6.9 µM
- TGI [8]: > 100 µM
- GI50 [9]: 6.03 µM
- TGI [9]: > 100 µM

Structure (SMILES): CN(C)C1(C#N)CCC2(CC1)OCCO2
- TGI [10]: > 100 µM
- TGI [3]: > 100 µM
- TGI [4]: > 100 µM
- TGI [5]: > 100 µM
- TGI [6]: > 100 µM
- TGI [7]: > 100 µM
- TGI [8]: > 100 µM
- TGI [9]: > 100 µM

Structure (SMILES): C=C1C(=O)OC2C1C(OC(=O)/C(=C/C)COC(C)=O)CC1(CO1)C1C(OC(=O)/C(=C/C)CO)C=C(C)C21 (stereo unspecified)
- TGI [3]: 2.98 µM
- TGI [4]: 3.39 µM
- TGI [5]: 25.9 µM
- TGI [7]: 35.1 µM
- TGI [8]: 25.3 µM
- TGI [9]: 10 µM
